Legend:
HT-29 cells = assay: In vitro anti-proliferative activity against HT-29 cells (intracellular ATP content, 72 h); assay type: cell-based; settings: Homo sapiens, 72 h after dosing
Protocol: Biological Example 2. In Vitro Anti-Proliferative Activity of the Compounds of the Present Invention Against HT-29 Cells
(§1) HT-29 cells were seeded on a 384-well plate at 3000 cells/well. After overnight adherence culture, DMSO or the compounds serially 1:5-diluted from 5 μM were added. The viability of the cells was assessed 72 h after dosing by measuring the intracellular ATP content. The inhibition percentages of viable cells by the compounds were calculated by comparing with the DMSO group, and the IC50 values were also calculated.

HCT116 cells = assay: In vitro anti-proliferative activity against HCT116 cells (intracellular ATP content, 72 h); assay type: cell-based; settings: Homo sapiens, HCT-116, 72 h after dosing
Protocol: Biological Example 3. In Vitro Anti-Proliferative Activity of the Compounds of the Present Invention Against HCT116 Cells
as §1, with “HCT116” for “HT-29”, “IC 50” for “IC50”

[1] = biological target: T1, Recombinant human KIF18A (1-467His-tagged) protein (Homo sapiens, UniProt Q8NI77); assay: KIF18A enzyme assay (microtubule-stimulated ATPase activity, ADP-Glo); assay type: biochemical; settings: 30 nM KIF18A, 75 μM ATP, 30 μg/mL pig microtubules; read-out: Inhibitory activity against KIF18A IC50
T1 construct: Recombinant human KIF18A (1-467His-tagged) protein; His; made in house
In short: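 Buffer 15 mM Tris pH 7.5, 10 mM MgCl2, 0.01% Pluronic F-68, 1 μM paclitaxel, 30 μg/mL pig microtubules; reactions at room temperature. IC50 from inhibition relative to DMSO.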

[2] = system: Histone H3 Ser10 sites in HT29 cells; assay: Phosphorylation assay of histone H3 Ser10 sites in HT29 cells (immunofluorescence assay); assay type: cell-based; settings: Homo sapiens, HT-29, 6 h after addition, FITC/DAPI ratio
Protocol: Biological Example 5. Phosphorylation Assay of Histone H3 Ser10 Sites in HT29 Cells (Immunofluorescence Assay)
HT29 cells were seeded in a 96-well plate (Fisher 160376) at 8000 cells/well. The next day, the serially diluted compounds were added. 6 h after the addition of the compounds, the cells were washed once with 1×PBS, immobilized with 4% PFA for 15 min, further washed three times with 1×PBS, and permeabilized with 0.02% Triton-X100 for 10 min. A blocking buffer was then added for blocking for 15-30 min, and 1:3000-diluted primary antibodies (Phospho-Histone H3 (Ser10) (D7N8E) XP® Rabbit mAb #53348) were added. The plate was placed at 4° C. overnight. The next day, the cells were washed three times with 1×PBS, and 1:1000-diluted secondary antibodies (Fluorescein (FITC)-conjugated Affinipure Goat Anti-Rabbit IgG (H+L)) were added. The cells were incubated in the dark for 1-2 h and washed three times with 1×PBS. The nuclei were stained with DAPI, and after the staining was completed, photographs were taken using an MD ImageXpress Pico personal high-content imaging analysis system. The ratio of phosphorylation (FITC/DAPI) at H3 Ser10 sites in HT29 cells was quantified. To evaluate the effects of the compounds on the mitosis phase of HT29 cells, the EC50 values of the compounds were calculated.

T1 sequence (Q8NI77 1-467): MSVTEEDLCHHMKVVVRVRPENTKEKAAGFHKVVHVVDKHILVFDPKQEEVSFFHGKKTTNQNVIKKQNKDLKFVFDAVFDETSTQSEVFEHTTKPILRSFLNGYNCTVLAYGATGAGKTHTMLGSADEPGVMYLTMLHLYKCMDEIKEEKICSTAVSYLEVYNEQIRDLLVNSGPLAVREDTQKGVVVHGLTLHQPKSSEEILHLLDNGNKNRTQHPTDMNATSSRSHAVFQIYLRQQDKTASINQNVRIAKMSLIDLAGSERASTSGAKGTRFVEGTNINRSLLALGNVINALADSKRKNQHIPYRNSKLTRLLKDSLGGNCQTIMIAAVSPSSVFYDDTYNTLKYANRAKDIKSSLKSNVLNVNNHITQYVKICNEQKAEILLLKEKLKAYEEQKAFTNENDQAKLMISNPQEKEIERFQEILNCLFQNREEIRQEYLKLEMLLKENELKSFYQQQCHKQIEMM
T1 sequence (P02550 whole entry partner): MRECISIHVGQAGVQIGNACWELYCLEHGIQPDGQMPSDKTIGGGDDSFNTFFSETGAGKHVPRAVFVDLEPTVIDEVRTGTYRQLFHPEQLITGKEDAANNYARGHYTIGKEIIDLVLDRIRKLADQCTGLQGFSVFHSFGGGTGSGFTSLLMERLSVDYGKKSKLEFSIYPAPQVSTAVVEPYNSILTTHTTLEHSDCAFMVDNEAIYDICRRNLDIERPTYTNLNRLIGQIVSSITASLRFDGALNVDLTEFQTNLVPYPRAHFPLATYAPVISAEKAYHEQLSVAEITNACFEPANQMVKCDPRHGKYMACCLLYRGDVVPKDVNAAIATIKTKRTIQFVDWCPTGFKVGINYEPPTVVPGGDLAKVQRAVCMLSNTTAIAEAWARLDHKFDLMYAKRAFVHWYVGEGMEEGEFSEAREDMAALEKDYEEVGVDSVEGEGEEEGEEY
T1 sequence (P02554 whole entry partner): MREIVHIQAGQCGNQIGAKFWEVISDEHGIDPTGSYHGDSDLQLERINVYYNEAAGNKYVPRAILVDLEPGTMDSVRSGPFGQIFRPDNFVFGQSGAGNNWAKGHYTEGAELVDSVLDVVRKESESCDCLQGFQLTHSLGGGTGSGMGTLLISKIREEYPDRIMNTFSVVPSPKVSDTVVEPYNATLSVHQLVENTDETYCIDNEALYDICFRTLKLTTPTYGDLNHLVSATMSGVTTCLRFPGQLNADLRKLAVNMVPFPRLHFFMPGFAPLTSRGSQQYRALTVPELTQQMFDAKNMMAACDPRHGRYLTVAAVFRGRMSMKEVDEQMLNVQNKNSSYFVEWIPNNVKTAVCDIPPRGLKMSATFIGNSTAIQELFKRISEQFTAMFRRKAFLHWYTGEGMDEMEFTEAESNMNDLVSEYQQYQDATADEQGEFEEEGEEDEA

Row | Compound | IC50 (HT-29 cells) | IC50 (HCT116 cells) | IC50 [1] | EC50 [2]
1 | O=C(Nc1ccc([N+](=O)[O-])c(N2CCC(F)(F)CC2)c1)c1ccc(NS(=O)(=O)CCO)cc1N1CCC2(CC1)CC2 [Compound 1] | 75.3 nM | > 10000 nM | ≤ 100 nM | 
2 | C[C@H]1CN(c2cc(NC(=O)c3ccc(NS(=O)(=O)CCO)cc3N3CCC4(CC3)CC4)ccc2[N+](=O)[O-])CCO1 [Compound 3] | 1600 nM | > 10000 nM | ≤ 100 nM | 
3 | O=C(Nc1ccc([N+](=O)[O-])c(N2CC(F)(F)C2)c1)c1ccc(NS(=O)(=O)CCO)cc1N1CCC2(CC1)CC2 [Compound 4] | 191 nM | > 10000 nM | ≤ 100 nM | 
4 | O=C(Nc1ccc([N+](=O)[O-])c(N2CCC3(CC3)C2)c1)c1ccc(NS(=O)(=O)CCO)cc1N1CCC2(CC1)CC2 [Compound 6] | 826 nM | > 10000 nM | ≤ 100 nM | 
5 | O=C(Nc1ccc([N+](=O)[O-])c(OC2CCC2)c1)c1ccc(NS(=O)(=O)CCO)cc1N1CCC2(CC1)CC2 [Compound 7] | 339 nM | > 10000 nM | ≤ 100 nM | 
6 | O=C(Nc1ccc([N+](=O)[O-])c(N2CCC(F)(F)CC2)n1)c1ccc(NS(=O)(=O)CCO)cc1N1CCC2(CC1)CC2 [Compound 65] | 55.3 nM | > 10000 nM | ≤ 100 nM | 45.5 nM
7 | O=C(Nc1ccc([N+](=O)[O-])c(N2CCC(F)(F)CC2)c1)c1cnc(NS(=O)(=O)CCO)cc1N1CCC2(CC1)CC2 [Compound 97] | > 2000 nM | > 10000 nM | ≤ 100 nM | 
8 | O=C(Nc1ccc([N+](=O)[O-])c(N2CCC(F)(F)CC2)n1)c1cnc(NS(=O)(=O)CCO)cc1N1CCC2(CC1)CC2 [Compound 129] | 134 nM | > 10000 nM | ≤ 100 nM | 
9 | COc1ccc(NC(=O)c2ccc(NS(=O)(=O)CCO)cc2N2CCC3(CC2)CC3)nc1N1CCO[C@H](C)C1 [Compound 258] | 190 nM | > 10000 nM | ≤ 100 nM | 
10 | COc1ccc(NC(=O)c2ccc(NS(=O)(=O)CCO)cc2N2CCC3(CC2)CC3)nc1N1CCO[C@@H](C)C1 [Compound 259] | 282 nM | > 10000 nM | ≤ 100 nM | 
11 | COc1ccc(NC(=O)c2ccc(NS(=O)(=O)CCO)cc2N2CCC3(CC2)CC3)nc1N1CC(F)(F)C1 [Compound 260] | 55.2 nM | > 10000 nM | ≤ 100 nM | 
12 | COc1ccc(NC(=O)c2ccc(NS(=O)(=O)CCO)cc2N2CCC3(CC2)CC3)nc1OCCC(F)(F)F [Compound 261] | 75.7 nM | > 10000 nM | ≤ 100 nM | 
13 | COc1ccc(NC(=O)c2ccc(NS(=O)(=O)CCO)cc2N2CCC3(CC2)CC3)nc1N1CCC2(CC2)C1 [Compound 262] | 242 nM | > 10000 nM | ≤ 100 nM | 
14 | COc1ccc(NC(=O)c2ccc(NS(=O)(=O)CCO)cc2N2CCC3(CC2)CC3)nc1OC1CCC1 [Compound 263] | 85.7 nM | > 10000 nM | ≤ 100 nM | 
15 | COc1ccc(NC(=O)c2ccc(S(=O)(=O)NCCO)cc2N2CCC3(CC2)CC3)nc1N1CCC(F)(F)CC1 [Compound 273] |  |  | ≤ 100 nM | 8.5 nM
16 | COc1ccc(NC(=O)c2cnc(NS(=O)(=O)CCO)cc2N2CCC3(CC2)CC3)nc1N1CCC(F)(F)CC1 [Compound 289] | 27.7 nM | > 10000 nM | ≤ 100 nM | 
17 | COc1ccc(NC(=O)c2cnc(S(=O)(=O)NCCO)cc2N2CCC3(CC2)CC3)nc1N1CCC(F)(F)CC1 [Compound 305] | 40.4 nM | > 10000 nM | ≤ 100 nM | 

— US20260158017A1, “KIF18A INHIBITOR” (WIGEN BIOMEDICINE TECHNOLOGY (SHANGHAI) CO., LTD., priority 2021, published 2026)
